Data taken from patent publication US20230218614A1, “COMPOUND FOR THE TREATMENT OF C[…]” (METRIOPHARM AG, priority 2020, published 2023).

Legend:
[1] = system: Vero B4 cells; details: non-infected Vero B4 cells, antivirally effective concentrations, observation period of 3 days
Source text: Herein viable cells with an intact mitochondrial succinate-tetrazolium dehydrogenase system effect an enzymatic conversion of the feebly red tetrazolium salt WST-1 (4-[3-(4-iodophenyl)-2-(4-nitrophenyl)-2H-5-tetrazolio]-1,3 benzene disulfonate) into dark red formazan. This color change can be measured photometrically in a spectrophotometer. Thus, the WST assay is a very sensitive method for measuring the toxicity of substances on the cell metabolism. The value for untreated cells was set to 100%.
The value for untreated cells was set to 100%.

[2] = system: SARS-CoV-2
[3] = system: 3-nitrotyrosine; details: ex vivo lung exposed to cigarette smoke; cited from earlier work

Nc1cccc2c(=O)[nH][nH]c(=O)c12.[Na] [5-amino-2,3-dihydro-1,4-phthalazinedione sodium salt]
toxic effect (cell viability, WST assay) [1]: does not display any significant toxic effect | SARS-CoV-2 nucleocapsid protein (Western Blot bands) [2]: clear reduction | generation of SARS-CoV-2 proteins (densitometric evaluation of nucleocapsid) [2]: inhibited dose-dependently | 3-nitrotyrosine [3]: nearly complete reduction
